Drawing on PubChem BioAssay (NCI), this text covers TGI and GI50 for 13 compounds.

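Cells were grown in 96-well plates and exposed to each compound for 48 hours at five concentrations; endpoints were interpolated linearly between bracketing concentrations, or set to the highest concentration if not reached. GI50 is the concentration that inhibits growth by half. TGI is the concentration that stops growth completely.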 Bounds are passed on as bounds.

Some test systems named below: 786-0 renal; PC-3 prostate; A498 renal; NCI-H460 lung; OVCAR-8 ovarian; OVCAR-4 ovarian; U251 CNS; HL-60(TB) leukemia; SK-OV-3 ovarian; IGROV1 ovarian; COLO 205 colon.
Common to all, as to experiment: inhibition of tumour cell growth, NCI panel, 48 h

On to `Cc1cc(S(=O)(=O)/N=C(\[N-]S(=O)(=O)c2cc(Cl)sc2Cl)[n+]2ccc(N(C)C)cc2)c(S)cc1Cl`, for which the TGI in the experiment on 786-0 renal is more than 100 µM; in the experiment on PC-3 prostate, more than 100 µM; in the experiment on A498 renal it was 82.5 µM; in the experiment with NCI-H460 lung, more than 100 µM; with OVCAR-8 ovarian, more than 100 µM; in the experiment with OVCAR-4 ovarian, more than 100 µM. Further, the TGI with U251 CNS, with HL-60(TB) leukemia, in the experiment on SK-OV-3 ovarian and with IGROV1 ovarian was more than 100 µM in each case.

Regarding `COc1ccc(/C=C2\C[C@H]3[C@@H]4CCC5=CC(=O)CC[C@]5(C)[C@H]4CC[C@]3(C)C2=O)cc1OC`, the TGI in the experiment on 786-0 renal is more than 100 µM; with PC-3 prostate it was more than 100 µM; with A498 renal it was more than 100 µM; with NCI-H460 lung, more than 100 µM; with OVCAR-8 ovarian it was more than 100 µM; in the experiment with COLO 205 colon, 9.93 µM. Further, the TGI was more than 100 µM in the experiment on OVCAR-4 ovarian, 6.91 µM in the experiment with HL-60(TB) leukemia, more than 100 µM with SK-OV-3 ovarian and more than 100 µM in the experiment with IGROV1 ovarian.

For `Cc1nc2sccn2c1/C=C1/C(=O)Nc2cccc(Cl)c21`, the TGI in the experiment with 786-0 renal, in the experiment on PC-3 prostate, in the experiment with A498 renal, in the experiment on NCI-H460 lung, in the experiment with OVCAR-8 ovarian and in the experiment with COLO 205 colon was more than 100 µM each time. Further, the TGI with U251 CNS, with HL-60(TB) leukemia, in the experiment on SK-OV-3 ovarian and in the experiment with IGROV1 ovarian was more than 100 µM throughout.

As for `CC(=O)OC(Cc1c(O)c2c(C)cccc2oc1=O)C(C)(C)O` (centres undefined), the TGI in the experiment with 786-0 renal, with PC-3 prostate, in the experiment on A498 renal, in the experiment with NCI-H460 lung, in the experiment on OVCAR-8 ovarian and with COLO 205 colon was more than 100 µM throughout. Further, the TGI in the experiment on U251 CNS, in the experiment on HL-60(TB) leukemia, in the experiment on SK-OV-3 ovarian and with IGROV1 ovarian was more than 100 µM each time.

With `COc1cc(OC)c2[nH]c3c(O)c(-c4c(C)cc5c([nH]c6c(OC)cc(OC)cc65)c4O)c(C)cc3c2c1`, the TGI was 15.1 µM in the experiment with 786-0 renal; 15.2 µM in the experiment with PC-3 prostate; 14.8 µM in the experiment on A498 renal; 16.6 µM in the experiment on NCI-H460 lung; 15.3 µM with OVCAR-8 ovarian; 21.4 µM in the experiment with OVCAR-4 ovarian. Also, the TGI in the experiment with U251 CNS worked out at 50 µM; in the experiment with HL-60(TB) leukemia, 10.5 µM; in the experiment with IGROV1 ovarian it was 13.7 µM. In addition, the GI50 in the experiment on A498 renal is 7.82 µM; in the experiment with HL-60(TB) leukemia it was 2.82 µM.

As to `CNC1(C(=O)O)CC1`, the TGI with 786-0 renal, in the experiment on PC-3 prostate, in the experiment on A498 renal, in the experiment on NCI-H460 lung, in the experiment with OVCAR-8 ovarian and in the experiment on OVCAR-4 ovarian was more than 100 µM each time. Moreover, the TGI in the experiment with U251 CNS, with HL-60(TB) leukemia and with IGROV1 ovarian was more than 100 µM each time.

As for `c1ccc2c(c1)OC(N1CCCC1)c1cnc(N3CCOCC3)nc1-2` (centres undefined), the TGI in the experiment with 786-0 renal was more than 100 µM; in the experiment on PC-3 prostate, more than 100 µM; in the experiment with A498 renal it was 39.7 µM; in the experiment on NCI-H460 lung it was more than 100 µM; in the experiment on OVCAR-8 ovarian it was more than 100 µM; in the experiment with COLO 205 colon, more than 100 µM. Besides, the TGI in the experiment on OVCAR-4 ovarian, with U251 CNS, in the experiment on HL-60(TB) leukemia and in the experiment with SK-OV-3 ovarian was more than 100 µM each time.

For `C=C1C[C@H](O)[C@H](Br)C(C)(C)C12CCC(C)(Cl)C(Br)C2` (some centres undefined), the TGI worked out at 15.4 µM with 786-0 renal; 1.77 µM in the experiment with PC-3 prostate; 9.95 µM with NCI-H460 lung; 15.1 µM in the experiment with OVCAR-8 ovarian; 2.29 µM in the experiment with COLO 205 colon; 7.95 µM in the experiment with OVCAR-4 ovarian. In addition, the TGI in the experiment on U251 CNS was found to be 8.91 µM; with HL-60(TB) leukemia it was 13.4 µM; in the experiment on SK-OV-3 ovarian, 12.7 µM; with IGROV1 ovarian, 18.8 µM.

For the compound `CCOC(=O)C(Cl)(NC(=O)OCc1ccccc1)C(F)(F)F` (centres undefined), the TGI with 786-0 renal, with PC-3 prostate, in the experiment on A498 renal, with OVCAR-8 ovarian, in the experiment with COLO 205 colon and in the experiment with OVCAR-4 ovarian was more than 100 µM each time. Besides, the TGI with U251 CNS, in the experiment on HL-60(TB) leukemia, in the experiment on SK-OV-3 ovarian and in the experiment on IGROV1 ovarian was more than 100 µM throughout.

For the compound `COc1cccc(/C=C2\S/C(=N/Nc3nc(-c4ccc([N+](=O)[O-])cc4)cs3)NC2=O)c1O`, the TGI with 786-0 renal came out at 38.9 µM; in the experiment with PC-3 prostate, 40.2 µM; in the experiment with A498 renal, 50.9 µM; with NCI-H460 lung it was 42 µM; in the experiment with OVCAR-8 ovarian, 48.3 µM; with COLO 205 colon it was 33 µM. The TGI is 7.66 µM in the experiment on U251 CNS, more than 100 µM with HL-60(TB) leukemia, 79.8 µM with SK-OV-3 ovarian and 27.1 µM in the experiment on IGROV1 ovarian.

Take `CCOC1CC(C)N(C(=O)c2ccccc2)O1` (centres undefined): the TGI in the experiment on 786-0 renal, in the experiment with PC-3 prostate, in the experiment on A498 renal, with NCI-H460 lung, in the experiment on OVCAR-8 ovarian and in the experiment with U251 CNS was more than 100 µM throughout. Also, the TGI in the experiment on HL-60(TB) leukemia, in the experiment with SK-OV-3 ovarian and in the experiment on IGROV1 ovarian was more than 100 µM in each case.

In the case of `CC1(C)N=C(C2CCCN2C(=O)OCc2ccccc2)OC1=O` (centres undefined), the TGI in the experiment on 786-0 renal, in the experiment with PC-3 prostate, with A498 renal, with NCI-H460 lung, in the experiment on OVCAR-8 ovarian and in the experiment on COLO 205 colon was more than 100 µM in each case. Moreover, the TGI with U251 CNS, in the experiment on HL-60(TB) leukemia, in the experiment with SK-OV-3 ovarian and with IGROV1 ovarian was more than 100 µM in each case.

Consider `CC1C(C#N)(C#N)C(C#N)=C(N)C1(Cl)[N+](=O)[O-]` (centres undefined), for which the TGI amounted to 18.1 µM in the experiment on 786-0 renal; 32.9 µM in the experiment on PC-3 prostate; 31.5 µM in the experiment on A498 renal; 28.7 µM with OVCAR-8 ovarian; 18.5 µM in the experiment with COLO 205 colon; 25.8 µM with OVCAR-4 ovarian. The TGI with U251 CNS was found to be 34.4 µM; in the experiment with HL-60(TB) leukemia, 5.16 µM; in the experiment with SK-OV-3 ovarian, 32.6 µM; in the experiment with IGROV1 ovarian, 22.5 µM.
